Entries after “also recorded” stand apart in the source; their conditions may differ. Like-named read-outs stand apart in the source and are kept apart here.
Tests used:
MCF7 breast cancer cells = test: Colony formation assay in MCF7 cells with ARID1A knockdown; format: cell-based; settings: 20 and 40 nM AZD8055, 4 weeks
Experimental: (§1) (B) Validation of independent shRNAs (in pLKO vector) targeting ARID1A in T47D breast cancer cells. TIhe functional phenotypes of non-overlapping shARID1A vectors are indicated by the colony formation assay in 10 and 20 nM small molecule mTOR inhibitor AZD8055. The cells were fixed, stained and photographed after 2 weeks (untreated) or 4 weeks (inhibitor treatment). Ectopic expression of a mutant of cyclin DI (pBpDITA) served as a control in the experiment. (C) Validation of independent shRNAs (in pLKO vector) targeting ARID1A in MCF7 breast cancer cells. The functional phenotypes of non-overlapping shARIDJA vectors are indicated by the colony formation assay in 20 and 40 nM small molecule mTOR inhibitor AZD8055. The cells were fixed, stained and photographed after 2 weeks (untreated) or 4 weeks (inhibitor treatment). (D). Quantification of ARID1A mRNA levels by QRT-PCR after knockdown of ARID1A in MCF7 breast cancer cells.

[1] = tested on: PI3K pathway members (p473-AKT, p235/236-S6RP); test: Immunoblot of PI3K pathway members in BT474 cells; format: cell-based, human; settings: BT474 expressing three independent shARID1A vectors versus shctrl; increasing amounts of AZD8055, three hours
Experimental: BT474 cells stably expressing either shctrl, shTSC2 or three independent shARID1A vectors were exposed to increasing amounts of the mTOR inhibitor AZD8055. After three hours, cell lysates were prepared and PI3K pathway members were immunoblotted.

[2] = tested on: BT474 breast cancer cells; test: Colony formation assay in BT474 cells with ARID1A knockdown; format: cell-based, human; settings: 25 nM AZD8055 or 2 ug/ml trastuzumab, 4 weeks
Excerpt: The cells were fixed, stained and photographed after 2 weeks (untreated) or 4 weeks (inhibitor treatment).

T47D breast cancer cells = test: Colony formation assay in T47D cells with ARID1A knockdown; format: cell-based; settings: 10 and 20 nM AZD8055, 4 weeks
Experimental: as §1

phospho-AKT = test: Western blotting of phospho-AKT in H3122 cells; format: cell-based, human; settings: H3122 shSMARCE1 cells versus controls; 20 nM NVP-TAE684, 24 hours
Experimental: (B) SMARCE1^KD cells have elevated phospho-AKT levels in EML4-ALK cells. H3122 cells expressing controls (pRS or shGFP) or shSMARCE1 vectors were gown in the absence or presence of 20 nM NVP-TAE684 for 24 hours and the cell lysates were harvested for western blotting analysis. (C) MED12^KD cells have elevated phospho-AKT levels in EGFR mutant cells. PC9 cells expressing controls (pRS or shGFP) or shSMARCE1 vectors were gown in the absence or presence of 25 nM Gefitinib for 8 hours and the cell lysates were harvested for western blotting analysis.
Given that loss of MED2 or SMARCE1 causes resistance to multiple tyrosine kinase inhibitors in NSCLC cell lines, Applicants asked whether the activity of downstream components of receptor tyrosine kinase signaling is altered. AKT is a key downstream component and its phosphorylation status positively correlates with its activation that can be determined by specific antibodies against the phosphorylated form of AKT. 1-13122 cells were infected with two independent controls shRNA vectors or shRNAs targeting either MED12 or SMARCE1 and confirmed loss of MED112 or SMARCE1 protein by immunoblotting (FIGS. 15A and B). The cells were also treated of left untreated with the ALK inhibitor NVP-TAE684, to address the activation status of AKT in the presence or absence of the inhibitor. […]

H3122 cells = test: Colony formation assay in H3122 cells with or without shRNA knockdown; format: cell-based, human; settings: for sensitivity to ALK inhibitors after restoration of Med12: H3122 MED12 knockdown cells (shMED12_TRC#3, #5) plus mouse Med12 cDNA; for sensitivity to ALK inhibitors after restoration of Med12 / sensitivity to ALK inhibitors after restoration of SMARCE1: 300 nM Crizotinib or 2.5 nM NVP-TAE684; for sensitivity to ALK inhibitors after restoration of SMARCE1: H3122 SMARCE1 knockdown cells plus SMARCE1-ND; for resistance to ALK inhibitors on suppression of ARID1A or SMARCE1, colony formation: H3122 expressing independent shARID1A or shSMARCE1 vectors; for resistance to ALK inhibitors on suppression of ARID1A or SMARCE1, colony formation / resistance to ALK inhibitors on suppression of MED12, colony formation / resistance to ALK inhibitors, colony formation: 300 nM Crizotinib or 2.5 nM NVP-TAE684, 4 weeks; for resistance to ALK inhibitors on suppression of MED12, colony formation: H3122 expressing independent shMED12 vectors (pRS #3; pLKO TRC#2, #3, #5); for resistance to ALK inhibitors, colony formation: H3122 expressing library shMED12#1, shMED12#2, shARID1A or shSMARCE1
[3] = tested on: human NSCLC cell lines that harbor EML4-ALK translocations; settings: cited from earlier work
[4] = tested on: HCC 1954 breast cancer cells; test: shRNA bar code screen in HCC 1954 breast cancer cells; format: cell-based
[5] = tested on: SKBR3 breast cancer cells; test: shRNA bar code screen in SKBR3 breast cancer cells; format: cell-based
[6] = tested on: EBC-1 (MET-amplified) cells; settings: 200 nM Crizotinib; for sensitivity to MET inhibitor after restoration of SMARCE1: EBC-1 SMARCE1-knockdown cells plus SMARCE1-ND
Experimental: (§2) Single cell suspensions of the lung cancer cell lines were seeded into 6-well plates (2×10^4 cells/well) and cultured both in the absence and presence of the ALK inhibitors. At the endpoints of colony formation assays, cells were fixed with formaldehyde, stained with crystal violet (0,1% w/v) and photographed. All relevant assays were performed independently at least three times. All knockdown and overexpression experiments were done by retroviral or lentiviral infections.
(§3) Subclones of each NSCLC cell line expressing the murine ecotropic receptor were generated and used for all experiments shown. Retroviral infections were performed using Phoenix cells as producers of retroviral supernatants using 2.5-3 μg of plasmid DNA as described (http://www(dot)stanford(dot)edu/group/nolan/retroviralsystems/phx(dot)html). […] For transfections of Phoenix cells, Applicants seeded 1.0×10^6 cells in a 6-well dish in the morning and transfected the cells 6-8 hours later. Cells were refreshed the next day in the morning and afternoon. Viral supernatant was harvested the day thereafter for infections of the target cells. […] Infected NSCLC cells were selected for successful retroviral integration using 2 μg/ml of puromycin.

[7] = tested on: H1993 (MET-amplified) cells; settings: 200 nM Crizotinib; for sensitivity to MET inhibitor after restoration of SMARCE1: H1993 SMARCE1-knockdown cells plus SMARCE1-ND; for resistance to MET inhibitor on suppression of ARID1A: H1993 expressing shARID1A #1 and #2, 4 weeks
[8] = tested on: PC9 cells (EGFRdelE746-A750); format: cell-based, human
Experimental: as §2, §3

DAB2IP mRNA = test: DAB2IP knockdown by qRT-PCR in PC9 cells; format: cell-based, human
Experimental: QRT-PCR assays were carried out to measure mRNA levels of genes using 7500 Fast Real-Time PCR System (Applied Biosystems). Total RNA was isolated using Trizol (Invitrogen) and 1 μg of total RNA was used for cDNA synthesis using superscrpipt 11 reverse transcriptase (Invitrogen) and random hexamer primers (Invitrogen). Relative mRNA levels of each gene shown were normalized to the expression of the house keeping gene GAPDH. The sequences of the primers for assays using SYBR® Green master mix (Roche) are listed below (h, human: m, mouse).

In the case of `COc1ccc(-c2ccc3c(N4CCOC[C@@H]4C)nc(N4CCOC[C@@H]4C)nc3n2)cc1CO` [AZD8055], the “resistance on suppression of ARID1A, colony formation” value (MCF7 breast cancer cells) was “conferred resistance; also recorded: confers resistance”, the “phosphorylated AKT (p473-AKT) levels in the presence of inhibitor” value [1] was “maintained higher levels” and the “phosphorylated S6RP (p235/236-S6RP) levels in the presence of inhibitor” value [1] was “maintained higher levels”. The “resistance on knockdown of ARID1A, colony formation” value [2] was “conferred resistance” and the “resistance on suppression of ARID1A, colony formation” value (T47D breast cancer cells) was “conferred resistance; also recorded: confers resistance”.

For `COc1cc(N2CCC(N3CCN(C)CC3)CC2)ccc1Nc1ncc(Cl)c(Nc2ccccc2S(=O)(=O)C(C)C)n1` [NVP-TAE684], the “phosphorylated AKT levels in the presence of inhibitor” value (phospho-AKT) was “maintained higher levels”, the “sensitivity to ALK inhibitors after restoration of Med12” value (H3122 cells) was “re-sensitizes” and the “sensitivity to ALK inhibitors after restoration of SMARCE1” value (H3122 cells) was “re-sensitizes”. The “resistance to ALK inhibitors on suppression of ARID1A or SMARCE1, colony formation” value (H3122 cells) was “confers drug resistance”, the “resistance to ALK inhibitors on suppression of MED12, colony formation” value (H3122 cells) was “confers drug resistance” and the “resistance to ALK inhibitors, colony formation” value (H3122 cells) was “confer resistance”. The “inhibition of EML4-ALK NSCLC cell lines” value [3] was “potently inhibit”.

For `Cn1c(=O)n(-c2ccc(C(C)(C)C#N)cc2)c2c3cc(-c4cnc5ccccc5c4)ccc3ncc21` [NVPBEZ235], the “resistance on knockdown of ARID1A” value [4] was “conferred resistance”.

In the case of `Oc1cccc(-c2nc(N3CCOCC3)c3oc4ncccc4c3n2)c1` [PI-103], the “resistance on knockdown of ARID1A (SMARCF1)” value [5] was “conferred resistance”.

With `C[C@@H](Oc1cc(-c2cnn(C3CCNCC3)c2)cnc1N)c1c(Cl)ccc(F)c1Cl` [crizotinib] the “sensitivity to MET inhibitor after restoration of SMARCE1” value (“sensitivity to MET inhibitor” below) [6] was “restored the sensitivity”, the “sensitivity to MET inhibitor” value ([6]; listed as Crizotinib) was “re-sensitizes” and the “resistance to MET inhibitor on suppression of SMARCE1” value ([6]; EBC-1 expressing shSMARCE1#1 and #2) was “conferred resistance”. The “sensitivity to ALK inhibitors after restoration of Med12” value (H3122 cells) was “re-sensitizes”, the “sensitivity to ALK inhibitors after restoration of SMARCE1” value (H3122 cells) was “re-sensitizes” and the “resistance to ALK inhibitors on suppression of ARID1A or SMARCE1, colony formation” value (H3122 cells) was “confers drug resistance”. For the same compound, the “resistance to ALK inhibitors on suppression of MED12, colony formation” value (H3122 cells) was “confers drug resistance”, the “resistance to ALK inhibitors, colony formation” value (H3122 cells) was “confer resistance” and the “sensitivity to MET inhibitor” value [7] was “restored the sensitivity”. For the same compound, the “sensitivity to MET inhibitor” value ([7]; listed as Crizotinib) was “re-sensitizes”, the “resistance to MET inhibitor on suppression of ARID1A” value [7] was “conferred resistance” and the “resistance to MET inhibitor on suppression of ARID1A” value ([7]; listed as Crizotinib) was “are resistance”. The “resistance to MET inhibitor on suppression of SMARCE1” value ([7]; H1993 expressing shSMARCE1#1 and #2) was “conferred resistance”.

For “shDAB2IP#2: lentiviral pLKO shRNA vector from the TRC library targeting DAB2IP, sequence GACTCCAAACAGAAGATCATT (pLKO lentiviral vector)”, the “toxicity of shRNA vector” value [8] was “exhibited toxicity”.

In the case of “shDAB2IP#5: lentiviral pLKO shRNA vector from the TRC library targeting DAB2IP, sequence GCACATCACTAACCACTACCT (pLKO lentiviral vector)”, the “knockdown of DAB2IP” value (DAB2IP mRNA) was “failed to induce a knockdown”.

Source: patent publication US20140287931A1, “METHODS AND COMPOSITIONS FOR PREDICTING RESISTANCE TO ANTICANCER TREATMENT” (Stichting het Nederlands Kanker Instituut - Antoni van …, priority 2011, published 2014)
